Experimental data as given in patent publication US20230405144A1, “INDUCIBLE CELL DEATH SYSTEMS” (priority 2020, published 2023).

B1: Smac/Diablo: cell-death inducing toxin expressed from constructs SB05405 / SB05408 (protein)
chain: MAALKSWLSRSVTSFFRYRQCLCVPVVANFKKRCFSELIRPWHKTVTIGFGVTLCAVPIAQKSEPHSLSSEALMRRAVSLVTDSTSTFLSQTTYALIEAITEYTKAVYTLTSLYRQYTSLLGKMNSEEEDEVWQVIIGARAEMTSKHQEYLKLETTWMTAVGLSEMAAEAAYQTGADQASITARNHIQLVKLQVEEVHQLSRKAETKLAEAQIEELRQKTQEEGEERAESEQEAYLRED
modifications: Description of Unknown: Smac/DIABLO sequence
notes: cell-death inducing toxin expressed from constructs SB05405 / SB05408

What was measured:
Format in all cases: cell-based
HEK293T cells [1] = experiment: Mifepristone-induced dimerization of iCasp9: annexin V / Sytox Red staining by flow cytometry; conditions: cells transduced with SB03080, 10 uM Mifepristone, 24 hours
Experimental: Cell engineering and assessment: 24 hours before transduction 50,000 HEK293T cells were plated on a 24-well dish. Next day, cells were transduced with 50,000 pg of SB03080 (Progesterone receptor domain-Gly-Ser linker-iCasp9-IRES-red fluorescent protein) (based on p24 titer). Transduced cells were split into drug free media or media with 10 uM of Mifepristone 48 hours after transduction. 24 hours later, samples were stained for annexin V, a marker of apoptosis, and Sytox Red a live/dead stain and quantified by flow cytometry.
Cells were lentivirally transduced to express the toxin Caspase-9 with an IRES-red fluorescent protein (mKate) expressed under control of an SFFV promoter. The Caspase-9 protein includes a progesterone receptor domain. Upon Mifepristone addition, monomers of pro-apoptotic Caspase-9 oligomerize through binding of the progesterone receptor domain to Mifepristone (see FIG. 3A and System 1; chemical inducer of dimerization that activates the pro-cell death-inducing protein), as described in Example 1.

[2] = system: HEK293T cell line TL06776 (SB04397); experiment: ACP repression of toxins: Incucyte confluency over 7 days; conditions: BAX expressed in HEK293T cells that do not express the ACP
Experimental: (§1) Cell engineering and assessment: 5,000 HEK293T cells were plated in a 96-well flat bottom TC treated plate. Cells were transduced same day with 5,000 pg of specified constructs (based on p24 titer). Plate transferred to the Incucyte where images of the cell layer were captured at 4 images per well every 2 hours over the course of 7 days with 10× objective. Confluency was calculated using the Incucyte basic pipeline software to map phase overlay in each well.
Stable cell lines were generated to express an ACP including a transcriptional repressor. Cells were then lentivirally transduced to express the cell-death inducing toxin BAX or iCasp-9 under control of an ACP responsive promoter. The ACP transcriptional repressor includes a degron that in response to addition of an IMiD promotes ubiquitin pathway-mediated degradation of the peptides. Upon IMiD addition, degradation of the repressor leads to expression of the cell-death inducing peptide (see System 3; degron-tagged transcriptional repressor), as described in Example 1. […]
The cell line TL06776 was assessed following expression of degron domain-ZF-minKrab (SB04397) and percent confluency was quantified from pictures taken every 2 hours over course of 7 days in triplicate. […] Viability was further assessed as the ratio of confluency of a given sample relative to the confluency of non-transduced samples.

HEK293T cells [3] = experiment: Screening pro-apoptotic toxins: Incucyte confluency over 11 days
Experimental: as §1, with “Plates were” for “Plate”, “11” for “7”, “overlay. Cells were split down to 5,000 cells per well on day 4.” for “overlay in each well.”
Cells were then lentivirally transduced to express the indicated cell-death inducing toxin.

| Molecule | cell death (both apoptotic and by live/dead) (HEK293T cells [1]) | decline in viability [2] [%] | decline in viability of a heterogeneous population (HEK293T cells [3]) |
| --- | --- | --- | --- |
| CC#C[C@]1(O)CC[C@H]2[C@@H]3CCC4=CC(=O)CCC4=C3[C@@H](c3ccc(N(C)C)cc3)C[C@@]21C [Mifepristone] | increased cell death | – | – |
| Bax: cell-death inducing toxin expressed from constructs SB05403 / SB05406 | – | 70 | ≤ 70% |
| B1 | – | – | did not |
